This is an account of results in US10550105B2 (Ribon Therapeutics Inc., priority 2018, dated 2020).

As usually defined, the IC50 is the concentration at which inhibition is half-maximal. A higher IC50 goes with weaker potency in that assay.

PARP7, sequence (Q7Z3E1 whole entry): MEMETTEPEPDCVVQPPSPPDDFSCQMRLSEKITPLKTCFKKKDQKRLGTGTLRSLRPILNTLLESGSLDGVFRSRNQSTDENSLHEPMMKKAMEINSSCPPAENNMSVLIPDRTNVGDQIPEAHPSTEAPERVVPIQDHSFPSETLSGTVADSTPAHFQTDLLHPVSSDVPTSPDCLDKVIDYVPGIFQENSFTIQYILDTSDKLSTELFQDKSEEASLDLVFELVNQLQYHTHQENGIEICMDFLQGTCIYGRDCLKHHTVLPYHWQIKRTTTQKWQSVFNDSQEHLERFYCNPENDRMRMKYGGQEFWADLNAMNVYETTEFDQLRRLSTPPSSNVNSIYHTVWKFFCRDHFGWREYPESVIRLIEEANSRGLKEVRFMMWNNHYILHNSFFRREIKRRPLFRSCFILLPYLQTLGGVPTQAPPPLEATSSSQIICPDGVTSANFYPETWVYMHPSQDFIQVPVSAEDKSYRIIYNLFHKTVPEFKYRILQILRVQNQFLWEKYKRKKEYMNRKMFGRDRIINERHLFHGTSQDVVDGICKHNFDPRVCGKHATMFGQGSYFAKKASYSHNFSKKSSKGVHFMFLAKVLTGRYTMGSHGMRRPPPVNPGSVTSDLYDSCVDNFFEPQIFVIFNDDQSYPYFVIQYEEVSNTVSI

The experiment has as its target PARP7 (Homo sapiens (Human), UniProt Q7Z3E1). In words: Enzymatic assay for inhibition of PARP7: TR-FRET displacement of biotinylated Probe A from the TIPARP active site. As to conditions: Table A-1. The class given is binding. The method, boiled down: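 Read-out: 665/615 nm emission ratio (ex 320 nm, 90 μs delay) indexing bound TIPARP–Probe A. Final incubation 30 min, 25° C; compounds in dose response. Curve fit of % inhibition vs concentration; Hill slope floating or fixed at 1 (3-parameter).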
The compound `N#Cc1cnc(N2CCN(C(=O)c3cccc(OC[C@H]4c5ccccc5CN4c4cn[nH]c(=O)c4C(F)(F)F)c3)CC2)cn1` [Example 369, (R)-5-(4-(3-((2-(6-Oxo-5-(trifluoromethyl)-1,6-dihydropyridazin-4-yl)isoindohn-1-yl)methoxy)benzoyl)piperazin-1-yl)pyrazine-2-carbonitrile] registered an IC50 of 100 to 1000 nM. Then `N#Cc1cnc(N2CCN(C(=O)c3cccc(OC[C@@H]4c5ccccc5CN4c4cn[nH]c(=O)c4C(F)(F)F)c3)CC2)cn1` [Example 370, (S)-5-(4-(3-((2-(6-Oxo-5-(trifluoromethyl)-1,6-dihydropyridazin-4-yl)isoindohn-1-yl)methoxy)benzoyl)piperazin-1-yl)pyrazine-2-carbonitrile], with less than 100 nM. For `N#Cc1ccc(N2CCN(C(=O)c3ccc(OCC4c5ccccc5CN4c4cn[nH]c(=O)c4C(F)(F)F)cc3)CC2)nc1` (stereo not shown) [Example 371, 6-(4-(4-((2-(6-Oxo-5-(trifluoromethyl)-1,6-dihydropyridazin-4-yl)isoindolin-1-yl)methoxy)benzoyl)piperazin-1-yl)nicotinonitrile] the value was 100 to 1000 nM; for `O=C(c1cccc(OC[C@H]2c3ccccc3CN2c2cn[nH]c(=O)c2C(F)(F)F)c1)N1CCn2c(nnc2C(F)(F)F)C1` [Example 372, (R)-4-(Trifluoromethyl)-5-(1-((3-(3-(trifluoromethyl)-5,6,7,8-tetrahydro-[1,2,4]triazolo[4,3-a]pyrazine-7-carbonyl)phenoxy)methyl)isoindolin-2-yl)pyridazin-3(2H)-one], not below 1000 nM; for `O=C(c1cccc(OC[C@@H]2c3ccccc3CN2c2cn[nH]c(=O)c2C(F)(F)F)c1)N1CCn2c(nnc2C(F)(F)F)C1` [Example 373, (S)-4-(Trifluoromethyl)-5-(1-((3-(3-(trifluoromethyl)-5,6,7,8-tetrahydro-[1,2,4]triazolo[4,3-a]pyrazine-7-carbonyl)phenoxy)methyl)isoindolin-2-yl)pyridazin-3(2H)-one], less than 100 nM.

Consider `O=C(c1cncc(OCC2c3ccccc3CN2c2cn[nH]c(=O)c2C(F)(F)F)c1)N1CCN(c2ccc(C(F)(F)F)cn2)CC1` (stereo not shown) [Example 374, 4-(Trifluoromethyl)-5-(1-(((5-(4-(5-(trifluoromethyl)pyridin-2-yl)piperazine-1-carbonyl)pyridin-3-yl)oxy)methyl)isoindolin-2-yl)pyridazin-3(2H)-one], for which the IC50 was less than 100 nM.

Take `O=C(c1cncc(OCC2c3ccccc3CN2c2cn[nH]c(=O)c2C(F)(F)F)c1)N1CCN(c2ccc(F)cn2)CC1` (stereo not shown) [Example 375, 5-(1-(((5-(4-(5-Fluoropyridin-2-yl)piperazine-1-carbonyl)pyridin-3-yl)oxy)methyl)isoindolin-2-yl)-4-(trifluoromethyl)pyridazin-3(2H)-one]: the IC50 is less than 100 nM.

With `O=C(c1cncc(OCC2c3ccccc3CN2c2cn[nH]c(=O)c2C(F)(F)F)c1)N1CCN(c2ccc(Cl)cn2)CC1` (stereo not shown) [Example 376, 5-(1-(((5-(4-(5-Chloropyridin-2-yl)piperazine-1-carbonyl)pyridin-3-yl)oxy)methyl)isoindolin-2-yl)-4-(trifluoromethyl)pyridazin-3(2H)-one], the IC50 is less than 100 nM. Then `O=C(c1cccc(OCC2c3ccccc3CN2c2cn[nH]c(=O)c2C(F)(F)F)c1)N1CCN(c2ncc(C(F)(F)F)cn2)CC1` (stereo not shown) [Example 377, 4-(Trifluoromethyl)-5-(1-((3-(4-(5-(trifluoromethyl)pyrimidin-2-yl)piperazine-1-carbonyl)phenoxy)methyl)isoindolin-2-yl)pyridazin-3(2H)-one], with less than 100 nM; and `O=C(c1cncc(OCC2c3ccccc3CN2c2cn[nH]c(=O)c2C(F)(F)F)c1)N1CCN(c2ncc(C(F)(F)F)cn2)CC1` (stereo not shown) [Example 378, 4-(Trifluoromethyl)-5-(1-(((5-(4-(5-(trifluoromethyl)pyrimidin-2-yl)piperazine-1-carbonyl)pyridin-3-yl)oxy)methyl)isoindolin-2-yl)pyridazin-3(2H)-one], with less than 100 nM.
